Assay results reported in publication PMC11391541, “Target-Directed Dynamic Combinatorial Chemistry Affords Binders of Mycobacterium tuberculosis IspE” (ACS Omega, 2024).
Values after ≈ are worked out from the molar mass of the structure shown. Values joined by “and” are separate entries in the source; they are usually repeats but may differ in a detail not shown here. Equal entries are not always repeated.

Assays:
MtbIspE [1] = biological target: T1, MtbIspE (Mycobacterium tuberculosis, UniProt P9WKG7); experiment: target-directed dynamic combinatorial chemistry (tdDCC), amplification of acylhydrazones in protein-templated vs blank DCL (HPLC-MS/MS, UV 310 nm); assay type: binding; conditions: for Amplification factors (DCL-4): DCL-4, 24 h; for Amplification factors (DCL-4) / Amplification factors (DCL-3): 40 mol % MtbIspE; for Amplification factors (DCL-3): DCL-3, 24 h, I1 and K1 integrated as one cluster
T1 sequence (P9WKG7 whole entry): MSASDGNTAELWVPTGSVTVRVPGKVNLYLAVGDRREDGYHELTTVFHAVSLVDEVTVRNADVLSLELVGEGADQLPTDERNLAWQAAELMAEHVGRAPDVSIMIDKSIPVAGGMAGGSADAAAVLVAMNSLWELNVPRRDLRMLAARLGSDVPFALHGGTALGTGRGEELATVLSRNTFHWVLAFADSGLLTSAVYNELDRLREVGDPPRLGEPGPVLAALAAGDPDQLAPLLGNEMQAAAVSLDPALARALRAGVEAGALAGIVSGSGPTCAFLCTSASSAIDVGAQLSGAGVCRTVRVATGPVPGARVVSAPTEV
Description: In this study, we used MtbIspE as target protein and the reversible reaction of hydrazides and aldehydes to form dynamic combinatorial libraries (DCLs) of acylhydrazones. […] To accelerate the reaction at neutral pH, aniline was used as nucleophilic catalyst activating the aldehydes.[2],[4],[19] We analyzed the protein’s effect on the DCLs by comparing HPLC-MS/MS data of blank vs protein-templated (PT) experiments. The experiments spanned 3 days, with periodic sampling (every 2 h, followed by two samples per day after 8 h). The addition of NaOH to raise the pH and halt the reactions ensured the sample composition was preserved for analysis.[19] Templated experiments were conducted in duplicate, and the protein was denatured and removed prior to HPLC-MS/MS analysis.
The tdDCC hits and thus potential MtbIspE binders are amplified in the PT experiment compared to the blank experiment. The first step in the analysis of DCLs is the determination of the equilibrium since the amplification factors need to be calculated when the concentration of products is stable. To determine the evolution of the possible products, it is important to measure the characteristic UV absorbance of the acylhydrazones linker (310 nm) during the HPLC-MS/MS run. The resulting UV peaks are assigned to each product using the MS data (Figures S3–S6). The sum of all peak areas is normalized to 100% in order to obtain the respective relative peak area (RPA) for each product. The RPA values represent relative concentrations, determined at each time point of the blank experiment until the values stabilize. […] However, the rest of the compounds are out of range, making a visual inspection difficult. […] The other three libraries behaved in the same way, reaching equilibrium within 24 h and also maintained stable concentrations beyond (Figures S7–S9). To determine the tdDCC hits, we compared the RPAs of the PT experiments to the blanks at 24 h and set a threshold of at least 50% increase in compound formation. In total, 11 acylhydrazones passed our criteria, with amplification factors ranging from […] to 15.5, qualifying them for resynthesis and further evaluation (Figure 3). During the analysis of chromatograms, challenges arose concerning product identification. Some compound peaks were not neatly separated, forcing us to consider them in clusters, others presented two peaks, likely due to isomers, and were considered separately in our evaluation. Lastly, some compounds were detected by MS, but their respective UV signal interfered with the injection peak or was too low for integration (<1%), both in the blank and PT experiments. Consequently, we excluded these compounds from the analysis (Figure S3–S6).
To a well of a 24-well plate, containing Tris buffer (pH 7.0) were added hydrazides (300 μM each, in DMSO), aldehydes (100 μM each, in DMSO), aniline (20 mM, in DMSO), the protein MtbIspE (25 or 40 μM in Tris buffer at pH 7.0), and an additional amount of DMSO to reach a final concentration of 5% in the DCL with 0.5 mL of end-volume. The DCL was allowed to mix on a plate shaker at room temperature and was frequently monitored via LCMS-MS. For analysis, 30 μL of the corresponding library was mixed with 42 μL acetonitrile and 3 μL of NaOH (1 M), the mixture was centrifuged, and the supernatant was used for the analysis. PT experiments were run in duplicates and the protein was omitted for the blank experiments.
High-resolution mass (HRMS) of final products was determined by HPLC-MS/MS using a Thermo Scientific Q Exactive Focus Orbitrap LC -MS/MS system. All compounds were analyzed for purity by LCMS on Acquity UPLC-SQD system from Waters with a gradient elution of Water (Formic acid 0.1%)/Acetonitrile on an HSS - T3 column (2.1 x 50 mm, Waters), 1.8 µm, at 30°C, PDA detection between 240 -320 nm, and MS detection by simultaneous ES+/ES- ionization in a mass range of 150 -800. The flow is set to 0.9 ml/min, and the […]
gradient time is 1.5 min. […]

[2] = solubility in M. tuberculosis 7H9 growth medium; assay type: physicochemical; conditions: Mtb 7H9 growth medium; for solubility: M. tuberculosis 7H9 growth medium, plasma or biological fluid, kinetic from dmso stock
Description: Prior to biological evaluation of the tdDCC hits, we tested their solubility in a standard buffer as well as in M. tuberculosis 7H9 growth medium. […] Regrettably, with 3.3 μM the least soluble compound is E1, making our most amplified and promising compound unsuitable for biological evaluation. We assessed the solubility in Mtb growth medium given that it is a complex, nutrient-rich environment with a distinct solubility profile. However, the trend continued, only seven hits are soluble at 8 μM or above, the remaining five compounds, including E1, were not eligible for antitubercular activity testing (Table 1).
Determination of in vitro anti-tubercular activity and solubility in 7H9 medium Anti-tubercular tests were performed as previously described .1 In brief, 7H9 complete medium (BD Difco; Becton Dickinson, Maryland,USA) supplemented with 10% OADC (BD), 0.2% glycerol, and 0.05% Tween80 as previously described ,3 was used to culture Mycobacterium tuberculosis (Mtb) strain H37Rv (ATCC 25618) carrying a mCherry -expressing plasmid (pCherry10 ).4 Cultures were harvested at mid-log phase and frozen in aliquots at – 80 °C. Prior to testing aliquots were thawed followed by centrifugation and the pellet was resuspended in 7H9 medium with 10% OADC (without glycerol and Tween80). This was further thoroughly resuspended by passing it through a syringe with a 26 -gauge needle to avoid clumping of the bacteria. 2×10^5 CFU (colony forming units) were then cultured in a total volume of 100 μl culture medium (triplicates) to test the non-precipitating compounds for the anti-tubercular activity at the concentrations indicated. For these assays, 96-well flat clear bottom black polystyrene microplates (Corning® CellBIND®, Merck, New York, USA) wer e used. Each plate had Rifampicin (at 1 μg/ml and 0.1 μg/ml) (National Reference Center, Borstel) as a reference compound. Plates were sealed with an air -permeable membrane (Porvair Sciences, Wrexham, UK) in a 37 °C incubator with mild agitation (TiMix5, Edmund Bühler, Germany). The activity of compounds was determined after 7 days by measuring the bacterial growth as relative light units (RLU) from the fluorescence intensity obtained at an excitation wavelength of 575 nm and an emission wavelength of 635 n m in a microplate reader (Synergy 2, BioTek Instruments, Vermont, USA). Two independent experiments (each in triplicates) were performed, and all values were normalized to untreated control sample (100%) in each experiment.
To obtain information regarding the toxicity of our compounds, their impact on the viability of human cells was investigated. HepG2 cells (2x10^4 cells per well) were seeded in 96 -well, flat-bottomed culture plates in 100 µL culture medium (DMEM containing 10% fetal calve serum, 1% penicillin -streptomycin). Twenty-four hours after seeding the cells, medium was removed and replaced by medium containing test compounds in a final DMSO concentration of 1%. Compounds were tested in duplicates at a single concentration or, for CC50 determination, at 8 concentrations that were prepared via 2 -fold serial dilutions in 1% DMSO/medium. Epirubicin and doxorubicin were used as positive controls in serial dilutions starting from 10 µM, and rifampicin was used as a negative control (at 100 µM). The living cell mass was determined 48 h after treatment with compounds by adding 0.1 volumes of 3 -(4,5-dimethylthiazol-2-yl)-2,5-diphenyltetrazolium bromide (MTT) solution (5 mg/mL sterile PBS) (Sigma, St. Louis, MO) to the wells. After incubating the cells for 30 min at 37 °C (atmosphere containing 5% CO2), medium was removed and MTT crystals were dissolved in 75 µL of a solution containing 10% SDS and 0.5% acetic acid in DMSO. The optical density (OD) of the samples was determined photometrically at 570 nm in a PHERAstar Omega plate reader (BMG labtech, Ortenberg, Germany). To obtain percent viability for each sample, their ODs were related to those of DMSO controls. […]

MtbIspE [3] = biological target: T1, MtbIspE; experiment: MtbIspE binding study via MicroScale Thermophoresis (MST); conditions: MST, 20 μM ligand, 200 nM MtbIspE, triplicate; qualitative
MtbIspE [4] = biological target: T1, MtbIspE; experiment: MtbIspE binding study via thermal shift assay; conditions: read-out: MtbIspE ΔTm at 20 μM
EcTolC = experiment: microbe, parasite or virus in culture; assay type: cell-based; conditions: Escherichia coli, 18 h, LB medium, read-out: EcTolC %inh. At 50 μM
physchem = conditions: aqueous with cosolvent or surfactant or cyclodextrin, kinetic from dmso stock
in vitro = conditions: human, HepG2 CC50, HepG2, 48 h, MTT
MtbH37Rv = assay type: cell-based, Mycobacterium tuberculosis
EcK12 = experiment: E. coli growth inhibition, wild-type strain K12; assay type: cell-based, Escherichia coli; conditions: Escherichia coli, 18 h, LB medium, read-out: EcK12 %inh. At 50 μM

Row | SMILES | Amplification factors (DCL-4) (MtbIspE [1]) | solubility in 7H9 [2] | MtbIspE binding at 20 μM (MtbIspE [3]) | ΔTm at 20 µM (MtbIspE [4]) [°C] | inhibition at 50 µM (EcTolC) [%] | solubility at 5 min (physchem; solubility 5% DMSO in PBS) [µM] | CC50 (in vitro) [µM] | Amplification factors (DCL-3) (MtbIspE [1]) | solubility [2] [µM] | MtbH37Rv MIC90 (MtbH37Rv) | inhibition at 50 µM (EcK12) [%] | solubility at 5 min (physchem; solubility in PBS with 5% DMSO) [µM] | amplification factor (DCL-1 at 24 h) (MtbIspE [1]; DCL-1, 24 h, 25 mol % MtbIspE)
1 | COc1ccc(-c2cc(/C=N/NC(=O)c3nnn(-c4cccc(C(F)(F)F)c4)c3N)no2)cc1 [E6, (E)-5-Amino-N′-((5-(4-methoxyphenyl)isoxazol-3-yl)methylene)-1-(3-(trifluoromethyl)phenyl)-1H-1,2,3-triazole-4-carbohydrazide] | 2.3 | insoluble | No | 0.7 | < 10 | 29 ± 10 (≈ 13.7 µg/mL) | > 50 | – | – | – | – | – | –
2 | Nc1c(C(=O)N/N=C/c2ccc(C(F)(F)F)cc2)nnn1-c1cccc(C(F)(F)F)c1 [E4, (E)-5-Amino-N′-(4-(trifluoromethyl)benzylidene)-1-(3-(trifluoromethyl)phenyl)-1H-1,2,3-triazole-4-carbohydrazide] | 0.7 | insoluble | consistently demonstrated binding across all measurements and Yes | – | < 10 | 12 ± 6 (≈ 5.31 µg/mL) | > 50 | – | – | – | – | – | –
3 | O=C(N/N=C/c1cc(Cl)ccc1O)C12CC3CC(C1)CC(n1cnc(Cl)n1)(C3)C2 [I1, (1R,3S,5R,7S)-3-(3-Chloro-1H-1,2,4-triazol-1-yl)-N′-((Z)-5-chloro-2-hydroxybenzylidene)adamantane-1-carbohydrazide] | – | – | – | – | 33 ± 3 | 8 ± 4 (≈ 3.47 µg/mL) | – | 2.0 | 64 | no inh. at max. sol. | < 10 | – | –
4 | COc1ccc(-c2cc(/C=N/NC(=O)Cn3nc(C)cc3C)no2)cc1 [B6, (E)-2-(3,5-Dimethyl-1H-pyrazol-1-yl)-N′-((5-(4-methoxyphenyl)isoxazol-3-yl)methylene)acetohydrazide] | 0.9 | – | bound in two out of three measurements and 2/3 | < 0.3 | < 10 | 65 ± 35 (≈ 23 µg/mL) | > 50 | – | 16 | no inh. at max. sol. | – | – | –
5 | COc1ccc(NC(=O)c2cc(C(=O)N/N=C/c3cc(Cl)ccc3O)n(C)n2)cc1OC [H1, (E)-5-(2-(5-Chloro-2-hydroxybenzylidene)hydrazine-1-carbonyl)-N-(3,4-dimethoxyphenyl)-1-methyl-1H-pyrazole-3-carboxamide] | – | – | No | < 0.3 | < 10 | 28 ± 6 (≈ 12.8 µg/mL) | 32 ± 5 | 7.8 | 32 | no inh. at max. sol. | – | – | –
6 | CN1CCN(CC(=O)N/N=C/c2cc(Cl)ccc2O)CC1 [C1, (E)-N′-(5-Chloro-2-hydroxybenzylidene)-2-(4-methylpiperazin-1-yl)acetohydrazide] | – | – | consistently demonstrated binding across all measurements and Yes | < 0.3 | 17.1 ± 0.1 | > 800 | > 50 | – | 16 | no inh. at max. sol. | < 10 | ~1000 (≈ 311 µg/mL) | –
7 | Nc1c(C(=O)N/N=C/c2cc(Cl)ccc2O)nnn1-c1cccc(C(F)(F)F)c1 [E1, (E)-5-Amino-N′-(5-chloro-2-hydroxybenzylidene)-1-(3-(trifluoromethyl)phenyl)-1H-1,2,3-triazole-4-carbohydrazide] | – | insoluble | – | – | < 10 | 3.3 ± 1 (≈ 1.4 µg/mL) | > 50 | – | – | – | – | – | 0.5
